pKd: −log10 of the molar value.
Biological target: T1, MMP-9 (Homo sapiens, UniProt P14780)
T1 construct: gene MMP9; Purified recombinant human MMP-9 protein with a His-tag (catalog number 10327-H08H)
Assay: SPR (Biacore […], MMP-9 immobilized by amine coupling)
Type: binding

T1 sequence (P14780 107-707): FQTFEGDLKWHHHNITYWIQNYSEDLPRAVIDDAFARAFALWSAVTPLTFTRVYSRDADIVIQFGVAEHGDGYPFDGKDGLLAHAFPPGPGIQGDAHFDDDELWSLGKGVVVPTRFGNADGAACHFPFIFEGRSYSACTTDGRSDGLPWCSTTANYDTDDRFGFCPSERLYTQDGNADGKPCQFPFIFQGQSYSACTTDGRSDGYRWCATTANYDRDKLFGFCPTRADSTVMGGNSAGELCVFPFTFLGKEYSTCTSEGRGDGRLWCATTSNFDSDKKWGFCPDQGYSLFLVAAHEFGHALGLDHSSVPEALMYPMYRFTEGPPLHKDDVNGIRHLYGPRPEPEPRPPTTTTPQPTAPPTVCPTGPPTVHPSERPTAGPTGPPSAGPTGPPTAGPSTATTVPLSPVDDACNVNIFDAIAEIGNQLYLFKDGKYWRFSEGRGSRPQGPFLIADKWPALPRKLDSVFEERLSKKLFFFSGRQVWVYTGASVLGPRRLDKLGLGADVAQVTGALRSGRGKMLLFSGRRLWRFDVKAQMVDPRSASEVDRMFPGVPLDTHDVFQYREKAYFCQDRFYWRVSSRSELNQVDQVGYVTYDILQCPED

Compound | pKd
COc1cc2c(cc1O)-c1c(OC)c(O)cc3c1[C@H](C2)NCC3 [compound 9, laetanine] | 4.67
COc1cc(O)c2c(=O)cc(-c3ccc(O)cc3)oc2c1 [compound 10, genkwanin] | 6.21
